# From patent US20250114345A1, “COMPOUNDS AND COMPOSITIONS AS CBP/P300 DEGRADERS AND USES THEREOF” (Oncopia Therapeutics, Inc. d/b/a/ SK Life Science Labs, priority 2023, published 2025)
# Legend:
# [1] = molecular target: T1, CBP (Homo sapiens, UniProt Q92793); assay: CBP degradation, HiBit technology in A549 CBP HiBit cells (24 h); assay type: cell-based; settings: 24 hrs post treatment
# T1 construct: host or cells: A549 CBP HiBit cells
# How it was run: (§1)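 Degradation potency and Dmax came from HiBiT luminescence in tagged A549 cells treated with serially diluted compound (DMSO stocks at 10 mM) after overnight equilibration in F-12K with 10% heat-inactivated FBS.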
# [2] = molecular target: T2, p300 (Homo sapiens, UniProt Q09472); assay: P300 degradation, HiBit technology in A549 P300 HiBit cells (2 h); assay type: cell-based; settings: 2 hrs post treatment; for Dmax: A549, A549 P300 HiBit cells; for DC50: A549 P300 HiBit cells
# T2 construct: host or cells: A549 P300 HiBit cells
# How it was run: as §1
# T2 sequence (Q09472 whole entry): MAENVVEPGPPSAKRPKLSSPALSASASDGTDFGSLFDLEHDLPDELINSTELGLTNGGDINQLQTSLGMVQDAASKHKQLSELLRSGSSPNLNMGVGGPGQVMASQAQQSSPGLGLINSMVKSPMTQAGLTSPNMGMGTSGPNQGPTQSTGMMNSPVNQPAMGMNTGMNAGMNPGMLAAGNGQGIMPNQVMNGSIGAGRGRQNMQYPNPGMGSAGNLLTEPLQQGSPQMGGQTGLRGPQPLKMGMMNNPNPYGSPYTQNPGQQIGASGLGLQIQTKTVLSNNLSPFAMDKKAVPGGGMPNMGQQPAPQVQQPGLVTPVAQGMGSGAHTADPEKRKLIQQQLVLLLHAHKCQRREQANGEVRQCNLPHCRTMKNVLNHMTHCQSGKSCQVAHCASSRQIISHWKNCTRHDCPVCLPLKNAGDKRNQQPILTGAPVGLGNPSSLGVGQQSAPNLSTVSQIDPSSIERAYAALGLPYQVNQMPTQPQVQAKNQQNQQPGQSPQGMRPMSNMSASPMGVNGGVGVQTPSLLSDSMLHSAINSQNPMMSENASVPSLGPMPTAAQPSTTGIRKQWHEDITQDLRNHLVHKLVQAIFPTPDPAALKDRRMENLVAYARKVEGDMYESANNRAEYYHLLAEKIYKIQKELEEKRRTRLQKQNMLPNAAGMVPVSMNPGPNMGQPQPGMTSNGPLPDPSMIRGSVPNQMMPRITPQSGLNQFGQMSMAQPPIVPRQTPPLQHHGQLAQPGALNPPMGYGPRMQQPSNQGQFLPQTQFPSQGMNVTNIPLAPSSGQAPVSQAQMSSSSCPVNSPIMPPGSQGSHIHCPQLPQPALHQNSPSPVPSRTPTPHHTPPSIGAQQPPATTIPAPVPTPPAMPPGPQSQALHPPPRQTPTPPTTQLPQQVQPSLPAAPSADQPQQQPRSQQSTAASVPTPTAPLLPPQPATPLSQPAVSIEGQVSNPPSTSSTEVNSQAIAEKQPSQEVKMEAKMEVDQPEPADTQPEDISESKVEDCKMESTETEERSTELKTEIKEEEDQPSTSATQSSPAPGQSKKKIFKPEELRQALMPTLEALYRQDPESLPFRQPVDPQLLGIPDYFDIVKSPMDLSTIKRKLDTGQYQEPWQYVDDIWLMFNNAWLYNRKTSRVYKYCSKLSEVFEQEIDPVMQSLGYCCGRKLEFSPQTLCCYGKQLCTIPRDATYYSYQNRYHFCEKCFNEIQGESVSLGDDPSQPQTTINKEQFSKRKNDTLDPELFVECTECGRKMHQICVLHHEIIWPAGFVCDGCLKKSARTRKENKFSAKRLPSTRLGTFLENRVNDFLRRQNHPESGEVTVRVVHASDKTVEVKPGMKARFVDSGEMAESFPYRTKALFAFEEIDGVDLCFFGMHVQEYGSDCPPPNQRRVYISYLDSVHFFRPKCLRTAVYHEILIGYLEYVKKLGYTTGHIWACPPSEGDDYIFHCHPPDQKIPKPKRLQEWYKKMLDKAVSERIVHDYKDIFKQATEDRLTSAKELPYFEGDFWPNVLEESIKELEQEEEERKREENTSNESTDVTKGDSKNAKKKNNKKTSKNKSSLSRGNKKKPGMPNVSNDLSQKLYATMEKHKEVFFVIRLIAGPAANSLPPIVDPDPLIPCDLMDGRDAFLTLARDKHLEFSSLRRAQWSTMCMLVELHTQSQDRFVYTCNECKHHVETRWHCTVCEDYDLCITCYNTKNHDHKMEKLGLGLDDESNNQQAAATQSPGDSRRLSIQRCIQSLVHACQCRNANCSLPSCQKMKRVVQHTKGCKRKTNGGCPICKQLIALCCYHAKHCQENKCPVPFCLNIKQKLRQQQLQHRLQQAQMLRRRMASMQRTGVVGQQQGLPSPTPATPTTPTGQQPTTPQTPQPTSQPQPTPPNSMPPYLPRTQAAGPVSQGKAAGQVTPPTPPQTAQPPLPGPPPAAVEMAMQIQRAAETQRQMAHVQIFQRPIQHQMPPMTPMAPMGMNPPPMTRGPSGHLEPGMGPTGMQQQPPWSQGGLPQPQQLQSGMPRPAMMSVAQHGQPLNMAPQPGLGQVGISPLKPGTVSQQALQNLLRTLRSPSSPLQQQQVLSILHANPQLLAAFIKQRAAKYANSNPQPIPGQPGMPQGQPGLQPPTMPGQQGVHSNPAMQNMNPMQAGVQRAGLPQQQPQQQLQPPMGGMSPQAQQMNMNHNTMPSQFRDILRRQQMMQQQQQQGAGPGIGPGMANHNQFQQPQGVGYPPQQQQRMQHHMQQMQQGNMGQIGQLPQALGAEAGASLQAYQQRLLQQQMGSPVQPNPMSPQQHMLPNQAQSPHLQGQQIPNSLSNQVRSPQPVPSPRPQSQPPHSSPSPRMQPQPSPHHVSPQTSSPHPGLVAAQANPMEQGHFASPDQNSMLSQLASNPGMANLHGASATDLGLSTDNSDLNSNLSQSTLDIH
# T1 sequence (Q92793 whole entry): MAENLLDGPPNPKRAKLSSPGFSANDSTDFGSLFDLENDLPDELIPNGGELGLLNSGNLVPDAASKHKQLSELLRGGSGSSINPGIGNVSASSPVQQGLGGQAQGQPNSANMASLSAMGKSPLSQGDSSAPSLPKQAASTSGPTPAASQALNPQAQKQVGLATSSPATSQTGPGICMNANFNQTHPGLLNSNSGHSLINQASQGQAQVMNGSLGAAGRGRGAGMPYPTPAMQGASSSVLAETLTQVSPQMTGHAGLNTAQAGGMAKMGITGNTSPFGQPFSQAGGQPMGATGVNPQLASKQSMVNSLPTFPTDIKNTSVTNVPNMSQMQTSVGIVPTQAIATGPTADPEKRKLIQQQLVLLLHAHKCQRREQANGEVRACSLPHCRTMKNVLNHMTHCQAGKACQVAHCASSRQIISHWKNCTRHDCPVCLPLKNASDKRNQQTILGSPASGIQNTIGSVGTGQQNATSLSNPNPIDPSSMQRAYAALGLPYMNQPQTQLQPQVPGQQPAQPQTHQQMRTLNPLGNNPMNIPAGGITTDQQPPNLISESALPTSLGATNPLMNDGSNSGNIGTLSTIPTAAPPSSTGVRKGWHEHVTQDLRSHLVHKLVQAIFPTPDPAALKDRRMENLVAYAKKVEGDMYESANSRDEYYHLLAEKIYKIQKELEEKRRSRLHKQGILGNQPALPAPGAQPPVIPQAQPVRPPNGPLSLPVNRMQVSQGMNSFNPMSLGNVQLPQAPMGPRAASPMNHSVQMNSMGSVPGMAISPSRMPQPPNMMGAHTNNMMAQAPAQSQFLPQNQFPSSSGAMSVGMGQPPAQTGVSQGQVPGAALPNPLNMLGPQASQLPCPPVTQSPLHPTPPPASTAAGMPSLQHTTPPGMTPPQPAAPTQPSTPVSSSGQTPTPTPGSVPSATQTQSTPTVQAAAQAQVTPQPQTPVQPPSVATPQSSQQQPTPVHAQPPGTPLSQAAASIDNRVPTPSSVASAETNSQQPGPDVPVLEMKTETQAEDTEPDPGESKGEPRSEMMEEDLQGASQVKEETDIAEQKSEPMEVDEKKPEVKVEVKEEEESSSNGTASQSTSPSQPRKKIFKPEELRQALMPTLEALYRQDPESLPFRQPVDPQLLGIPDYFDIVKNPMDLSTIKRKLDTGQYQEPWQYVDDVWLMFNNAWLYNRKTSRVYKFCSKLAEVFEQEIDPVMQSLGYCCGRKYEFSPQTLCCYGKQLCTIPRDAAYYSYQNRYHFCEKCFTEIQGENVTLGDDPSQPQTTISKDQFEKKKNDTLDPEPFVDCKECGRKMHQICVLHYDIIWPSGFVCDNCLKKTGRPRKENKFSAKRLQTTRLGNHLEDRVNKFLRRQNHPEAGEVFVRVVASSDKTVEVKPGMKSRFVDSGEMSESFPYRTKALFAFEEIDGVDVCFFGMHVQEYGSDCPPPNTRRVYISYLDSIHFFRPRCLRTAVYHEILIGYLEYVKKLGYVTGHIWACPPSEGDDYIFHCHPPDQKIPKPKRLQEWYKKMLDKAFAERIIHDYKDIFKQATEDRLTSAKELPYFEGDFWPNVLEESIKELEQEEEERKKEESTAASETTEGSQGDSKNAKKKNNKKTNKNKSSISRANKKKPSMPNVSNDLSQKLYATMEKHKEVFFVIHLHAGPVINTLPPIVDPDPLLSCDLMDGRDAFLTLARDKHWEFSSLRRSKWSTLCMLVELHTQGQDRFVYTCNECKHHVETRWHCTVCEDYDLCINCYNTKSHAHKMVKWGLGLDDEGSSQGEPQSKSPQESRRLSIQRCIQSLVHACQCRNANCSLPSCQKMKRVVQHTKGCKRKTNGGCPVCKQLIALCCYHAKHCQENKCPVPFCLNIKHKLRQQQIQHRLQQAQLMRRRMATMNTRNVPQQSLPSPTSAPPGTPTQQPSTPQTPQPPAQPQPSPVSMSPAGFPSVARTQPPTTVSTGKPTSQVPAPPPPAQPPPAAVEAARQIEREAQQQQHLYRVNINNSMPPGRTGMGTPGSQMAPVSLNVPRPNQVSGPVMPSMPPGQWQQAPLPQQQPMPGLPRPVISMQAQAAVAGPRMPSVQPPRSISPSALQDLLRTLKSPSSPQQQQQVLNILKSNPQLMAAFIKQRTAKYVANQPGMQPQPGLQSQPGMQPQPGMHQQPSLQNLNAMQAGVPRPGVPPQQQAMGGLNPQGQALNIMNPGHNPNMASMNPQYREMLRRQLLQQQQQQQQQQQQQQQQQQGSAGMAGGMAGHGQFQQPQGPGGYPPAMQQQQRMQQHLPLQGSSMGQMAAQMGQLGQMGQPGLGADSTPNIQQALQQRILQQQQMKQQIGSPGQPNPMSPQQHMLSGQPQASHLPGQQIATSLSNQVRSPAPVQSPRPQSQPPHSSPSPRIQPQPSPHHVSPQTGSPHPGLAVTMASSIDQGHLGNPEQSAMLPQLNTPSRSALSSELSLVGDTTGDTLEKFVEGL
SMILES,DC50 [1] [nM],Dmax [1] [%],Dmax [2] [%],DC50 [2] [nM]
"Cc1cc(-c2ncc3c(n2)CCCN3c2cccc3c2cc(C)c(=O)n3C)cnc1C(=O)NCC#Cc1cc2c(C3CCC(=O)NC3=O)cccc2o1 (stereo not shown) [Example B153, 5-(5-(1,3-dimethyl-2-oxo-1,2-dihydroquinolin-5-yl)-5,6,7,8-tetrahydropyrido[3,2-d]pyrimidin-2-yl)-N-(3-(4-(2,6-dioxopiperidin-3-yl)benzofuran-2-yl)prop-2-yn-1-yl)-3-methylpicolinamide]",100 to 999,< 20,> 80,< 1
"Cc1cc2c(N3CCCc4nc(-c5ccc(C(=O)NCC#Cc6ccc7c(c6)c(C6CCC(=O)NC6=O)nn7C)nc5)ncc43)cc(C3CCOCC3)cc2n(C)c1=O (stereo not shown) [Example B154, 5-(5-(1,3-dimethyl-2-oxo-7-(tetrahydro-2H-pyran-4-yl)-1,2-dihydroquinolin-5-yl)-5,6,7,8-tetrahydropyrido[3,2-d]pyrimidin-2-yl)-N-(3-(3-(2,6-dioxopiperidin-3-yl)-1-methyl-1H-indazol-5-yl)prop-2-yn-1-yl)picolinamide]",1 to 9.9,60 to 79,> 80,1 to 9.9
"Cc1cc2c(N3CCCc4nc(-c5ccc(C(=O)NCC#Cc6nc7cccc(C8CCC(=O)NC8=O)n7n6)nc5)ncc43)cc(C3CCOCC3)cc2n(C)c1=O (stereo not shown) [Example B156, 5-(5-(1,3-dimethyl-2-oxo-7-(tetrahydro-2H-pyran-4-yl)-1,2-dihydroquinolin-5-yl)-5,6,7,8-tetrahydropyrido[3,2-d]pyrimidin-2-yl)-N-(3-(5-(2,6-dioxopiperidin-3-yl)-[1,2,4]triazolo [1,5-a]pyridin-2-yl)prop-2-yn-1-yl) picolinamide]",> 1000,< 20,20 to 39,10 to 99
"Cc1cc2c(N3CCCc4nc(-c5ccc(C(=O)NCC#Cc6cc7c(C8CCC(=O)NC8=O)nccc7o6)nc5)ncc43)cc(C(C)C)cc2n(C)c1=O (stereo not shown) [Example B157, N-(3-(4-(2,6-dioxopiperidin-3-yl)furo[3,2-c]pyridin-2-yl)prop-2-yn-1-yl)-5-(5-(7-isopropyl-1,3-dimethyl-2-oxo-1,2-dihydroquinolin-5-yl)-5,6,7,8-tetrahydropyrido[3,2-d]pyrimidin-2-yl) picolinamide]",10 to 99,20 to 39,> 80,1 to 9.9
"Cc1cc2c(N3CCCc4nc(-c5ccc(C(=O)NCC#Cc6cc7c(C8CCC(=O)NC8=O)cccc7o6)nc5)ncc43)cc(C3CC4CCC(C3)O4)nc2n(C)c1=O (stereo not shown) [Example B159, 5-(5-(2-(8-oxabicyclo[3.2.1]octan-3-yl)-6,8-dimethyl-7-oxo-7,8-dihydro-1,8-naphthyridin-4-yl)-5,6,7,8-tetrahydropyrido[3,2-d]pyrimidin-2-yl)-N-(3-(4-(2,6-dioxopiperidin-3-yl)benzofuran-2-yl)prop-2-yn-1-yl)picolinamide]",100 to 999,20 to 39,> 80,1 to 9.9
"Cc1cc2c(-c3cn(C)c(=O)c4cc(-c5ccc(C(=O)NCC#Cc6cc7c(C8CCC(=O)NC8=O)cccc7o6)nc5)ncc34)cc(C3CCOCC3)nc2n(C)c1=O (stereo not shown) [Example B160, 5-(8-(6,8-dimethyl-7-oxo-2-(tetrahydro-2H-pyran-4-yl)-7,8-dihydro-1,8-naphthyridin-4-yl)-6-methyl-5-oxo-5,6-dihydro-2,6-naphthyridin-3-yl)-N-(3-(4-(2,6-dioxopiperidin-3-yl)benzofuran-2-yl)prop-2-yn-1-yl)picolinamide]",> 1000,< 20,> 80,1 to 9.9
"Cc1cc2c(N3CCCc4nc(-c5ccc(C(=O)NCC#Cc6cc7c(C8CCC(=O)NC8=O)cccc7o6)nc5)ncc43)nc(N3CCC(C)(O)CC3)cc2n(C)c1=O (stereo not shown) [Example B162, N-(3-(4-(2,6-dioxopiperidin-3-yl)benzofuran-2-yl)prop-2-yn-1-yl)-5-(5-(7-(4-hydroxy-4-methylpiperidin-1-yl)-1,3-dimethyl-2-oxo-1,2-dihydro-1,6-naphthyridin-5-yl)-5,6,7,8-tetrahydropyrido[3,2-d]pyrimidin-2-yl) picolinamide]",> 1000,< 20,> 80,1 to 9.9
"Cc1cc2c(N3CCCc4nc(-c5ccc(C(=O)NCC#Cc6cc7c(C8CCC(=O)NC8=O)cccc7o6)nc5)ncc43)cc(C3COC3)nc2n(C)c1=O (stereo not shown) [Example B163, 5-(5-(6,8-dimethyl-2-(oxetan-3-yl)-7-oxo-7,8-dihydro-1,8-naphthyridin-4-yl)-5,6,7,8-tetrahydropyrido[3,2-d]pyrimidin-2-yl)-N-(3-(4-(2,6-dioxopiperidin-3-yl)benzofuran-2-yl)prop-2-yn-1-yl)picolinamide]",> 1000,< 20,> 80,< 1
"Cc1cc2c(N3CCCc4nc(-c5ccc(C(=O)NCC#Cc6cc7c(C8CCC(=O)NC8=O)cccc7o6)nc5)ncc43)cc(C3CCC3)nc2n(C)c1=O (stereo not shown) [Example B164, 5-(5-(2-cyclobutyl-6,8-dimethyl-7-oxo-7,8-dihydro-1,8-naphthyridin-4-yl)-5,6,7,8-tetra-hydropyrido[3,2-d]pyrimidin-2-yl)-N-(3-(4-(2,6-dioxopiperidin-3-yl)benzofuran-2-yl)prop-2-yn-1-yl)picolinamide]",> 1000,< 20,> 80,10 to 99
"Cc1cc(-c2ncc3c(n2)CCCN3c2cc(C3CCOCC3)cc3c2cc(C)c(=O)n3C)cnc1C(=O)NCC#Cc1cc2c(C3CCC(=O)NC3=O)cccc2s1 (stereo not shown) [Example B165, 5-(5-(1,3-dimethyl-2-oxo-7-(tetrahydro-2H-pyran-4-yl)-1,2-dihydroquinolin-5-yl)-5,6,7,8-tetrahydropyrido[3,2-d]pyrimidin-2-yl)-N-(3-(4-(2,6-dioxopiperidin-3-yl)benzo[b]thiophen-2-yl)prop-2-yn-1-yl)-3-methylpicolinamide]",10 to 99,20 to 39,> 80,1 to 9.9
"Cc1cc(-c2cc3cccc(-c4nc(N5CCOCC5)cc5c4cc(C)c(=O)n5C)c3cn2)cnc1C(=O)NCC#Cc1cc2c(C3CCC(=O)NC3=O)cccc2o1 (stereo not shown) [Example B167, 5-(8-(1,3-dimethyl-7-morpholino-2-oxo-1,2-dihydro-1,6-naphthyridin-5-yl)isoquinolin-3-yl)-N-(3-(4-(2,6-dioxopiperidin-3-yl)benzofuran-2-yl)prop-2-yn-1-yl)-3-methylpicolinamide]",1 to 9.9,60 to 79,> 80,1 to 9.9

# The remaining lines, values ahead:
DC50 [1] [nM],Dmax [1] [%],Dmax [2] [%],DC50 [2] [nM],SMILES
100 to 999,< 20,> 80,< 1,"Cc1cc2c(N3CCCc4cc(-c5ccc(C(=O)NCC#Cc6cc7c(C8CCC(=O)NC8=O)cccc7o6)nc5)nnc43)cc(C3CCOCC3)cc2n(C)c1=O (stereo not shown) [Example B138, 5-(8-(1,3-dimethyl-2-oxo-7-(tetrahydro-2H-pyran-4-yl)-1,2-dihydroquinolin-5-yl)-5,6,7,8-tetrahydropyrido[2,3-c]pyridazin-3-yl)-N-(3-(4-(2,6-dioxopiperidin-3-yl)benzofuran-2-yl)prop-2-yn-1-yl)picolinamide]"
10 to 99,20 to 39,> 80,< 1,"Cc1cc(-c2ncc3c(n2)CCCN3c2cc(C3CCOCC3)cc3c2cc(C)c(=O)n3C)cnc1C(=O)NCC#Cc1cc2c(C3CCC(=O)NC3=O)cccc2o1 (stereo not shown) [Example B141, 5-(5-(1,3-dimethyl-2-oxo-7-(tetrahydro-2H-pyran-4-yl)-1,2-dihydroquinolin-5-yl)-5,6,7,8-tetrahydropyrido[3,2-d]pyrimidin-2-yl)-N-(3-(4-(2,6-dioxopiperidin-3-yl)benzofuran-2-yl)prop-2-yn-1-yl)-3-methylpicolinamide]"
> 1000,< 20,60 to 79,1 to 9.9,"Cc1cc2c(N3CCCc4nc(-c5ccc(C(=O)NCC#Cc6cc7cccc(C8CCC(=O)NC8=O)c7o6)nc5)ncc43)cc(C3CCOCC3)cc2n(C)c1=O (stereo not shown) [Example B148, 5-(5-(1,3-dimethyl-2-oxo-7-(tetrahydro-2H-pyran-4-yl)-1,2-dihydroquinolin-5-yl)-5,6,7,8-tetrahydropyrido[3,2-d]pyrimidin-2-yl)-N-(3-(7-(2,6-dioxopiperidin-3-yl)benzofuran-2-yl)prop-2-yn-1-yl)picolinamide]"
> 1000,< 20,> 80,1 to 9.9,"Cc1cc2c(N3CCCc4nc(-c5ccc(C(=O)NCC#Cc6cc7c(C8CCC(=O)NC8=O)cccc7o6)nc5)ncc43)cc(C3CCC3)cc2n(C)c1=O (stereo not shown) [Example B161, 5-(5-(7-cyclobutyl-1,3-dimethyl-2-oxo-1,2-dihydroquinolin-5-yl)-5,6,7,8-tetrahydropyrido [3,2-d]pyrimidin-2-yl)-N-(3-(4-(2,6-dioxo-piperidin-3-yl)benzofuran-2-yl)prop-2-yn-1-yl)picolinamide]"
> 1000,< 20,60 to 79,1 to 9.9,"Cc1cc2c(N3CCOc4nc(-c5ccc(C(=O)NCC#Cc6cc7c(C8CCC(=O)NC8=O)cccc7o6)nc5)ncc43)cc(C3CCOCC3)nc2n(C)c1=O (stereo not shown) [Example B166, 5-(5-(6,8-dimethyl-7-oxo-2-(tetrahydro-2H-pyran-4-yl)-7,8-dihydro-1,8-naphthyridin-4-yl)-6,7-dihydro-5H-pyrimido[4,5-b][1,4]oxazin-2-yl)-N-(3-(4-(2,6-dioxopiperidin-3-yl)benzofuran-2-yl)prop-2-yn-1-yl) picolinamide]"
